Experimental data as given in article PMC12030497, “Plasma Protein Binding, Biostability, Metabolite Profiling, and CYP450 Phenotype of TPB15 Across Different Species: A Novel Smoothened Inhibitor for TNBC Therapy” (Pharmaceutics, 2025).

Legend:
[1] = Plasma protein binding by ultrafiltration, monkey plasma; format: in vitro ADME, cynomolgus monkey
Description: (§1) To prepare plasma samples of TPB15 at final concentrations of 4, 8, and 16 μg/mL, 1 μL of TPB15 dissolved in dimethyl sulfoxide (DMSO) at low (400 μg/mL), medium (800 μg/mL), and high (1600 μg/mL) concentrations was added to 99 μL of blank plasma obtained from humans, rats, mice, monkeys, and dogs. Each concentration was prepared in six replicates. The samples were then divided into two groups: one for determining the pre-ultrafiltration concentration (Cpre) and the other for measuring the post-ultrafiltration concentration (Ct), following the evaluation of the non-specific binding coefficient (NSB) of TPB15 to the ultrafiltration tubes. For Cpre determination, 10 μL of the sample was mixed with 990 μL of plasma, vortexed thoroughly, and analyzed for drug concentration using the previously reported liquid chromatography–tandem mass spectrometry (LC-MS/MS) method. For Ct determination, the samples were first incubated in a water bath at 37 °C for 3 h. After incubation, they were transferred to ultrafiltration tubes and centrifuged at 14,000 rpm for 20 min at 4 °C using a centrifuge (Sigma 3K-15) from Sigma Laborzentrifugen GmbH (Osterode am Harz, Germany). After centrifugation, 10 μL of the ultrafiltrate was mixed with 990 μL of plasma, vortexed, and analyzed for concentration using the same LC-MS/MS method. The formula for calculating the plasma protein binding rate (PPB) is as follows: PPB (%) = [1 − Ct/(1 − NSB)/Cpre] × 100%. (NSB: non-specific binding coefficient. […]).

[2] = Plasma protein binding by ultrafiltration, dog plasma; format: in vitro ADME; details: beagle
Description: as §1

Stability in rat plasma = format: in vitro ADME, SD rat; details: 37 °C, 453 μg/L
Description: (§2) A total of 696.5 μL of plasma from each species (healthy mice, rat, dog, monkey, and human) were spiked with 3.5 μL of TPB15 stock solution ([…] in DMSO), resulting in a final TPB15 concentration of 453 μg/L in plasma. The mixture was then aliquoted into three tubes, each with a volume of 200 μL, maintaining a final DMSO concentration of 0.5%. After incubation in a water bath at 37 °C for 0, 30, 60, 90, and 120 min, 100 µL samples were transferred into EP tubes. Subsequently, 10 µL of internal standard working solution were added, followed by vortex mixing. Then, 500 µL of ethyl acetate were added, and the mixture was vortexed again before being centrifuged at 14,800 rpm at 4 °C for 10 min. A total of 400 µL of the supernatant were transferred into a new EP tube and placed in a vacuum concentrator (Bionoon-VAC2) (Bionoon Biotech, Shanghai, China) to dry for 1 h. The dried residue was reconstituted with 100 µL of mobile phase, vortex mixed thoroughly, and centrifuged again at 14,800 rpm at 4 °C for 10 min. A volume of 5 µL of the supernatant was then taken for LC-MS/MS analysis to determine the drug concentration. Additionally, a blank control group was established, in which PBS buffer was used in place of blank plasma in the incubation system.

[3] = Stability in monkey plasma; format: in vitro ADME, cynomolgus monkey; details: 37 °C, 453 μg/L
Description: as §2

[4] = Metabolic stability in mouse liver microsomes (MouLM); format: in vitro ADME, KM mice
Description: (§3) A total of 450 μL liver microsomes from mice, rat, dog, monkey, and human were spiked with 0.5 μL of TPB15 solution and pre-incubated in a water bath at 37 °C for 10 min. Following this, 50 μL of NADPH were added to initiate the reaction. The concentrations of each substance in the incubation system are detailed in Table 1. After initiating the metabolic reaction, 50 μL aliquots were removed at incubation times of 0, 5, 15, 30, 45, 60, and 90 min and transferred to 150 μL of icy methanol solution containing the internal standard to terminate the reaction. The mixtures were swirled for 2 min and then centrifuged at 14,800 rpm at 4 °C for 10 min. […] Three samples were prepared in parallel at each time point. Additionally, both a positive control group and a blank control group were established. In the positive control group, substrate testosterone was incubated with liver microsomes from mice, rat, dog, monkey, and human. The concentrations of substrate testosterone were measured at 0 and 90 min, and the changes in concentration before and after incubation were compared to confirm the activity of the liver microsomes. The blank control group included one drug-containing inactivated liver microsome sample for each species. The metabolic stability parameters, including in vitro elimination half-life (T1/2) and in vitro intrinsic clearance rate (CLint), were calculated based on this graph using the following formulas: in vitro elimination half-life (T1/2) = −0.693/k and in vitro intrinsic clearance rate (CLint) = (0.693 × incubation medium (mL))/(liver microsomes (mg) × T1/2).

[5] = Metabolic stability in dog liver microsomes (DLM); format: in vitro ADME, beagle dog
Description: as §3

[6] = Metabolic stability in human liver microsomes (HLM); format: in vitro ADME
Description: as §3

mice = test system: mice; set-up: method as in PMID 32690258; details: acute toxicity; cited from earlier work
MDA-MB-468 = test system: MDA-MB-468; set-up: method as in PMID 32690258; details: MDA-MB-468, in vitro; cited from earlier work
MDA-MB-231 = test system: MDA-MB-231; set-up: method as in PMID 32690258; details: MDA-MB-231, in vitro; cited from earlier work
MDA-MB-468 xenograft = test system: MDA-MB-468 xenograft; set-up: method as in PMID 32690258; details: MDA-MB-468 xenograft nude mouse model, compared with positive control drug Vismodegib; cited from earlier work

With `O=C(Nc1ccc(Cl)c(-c2nnc3c(Cl)cccn23)c1)c1ccc(Cl)nc1Cl` [TPB15] as the molecule, how does the fraction unbound at 3 h, 4 μg/mL ([1]; cynomolgus monkey, plasma, 4 μg/mL TPB15, ultrafiltration, 37 °C 3 h) read?
The fraction unbound at 3 h, 4 μg/mL was 0.185.

What about the fraction unbound at 3 h, 8 μg/mL ([1]; cynomolgus monkey, plasma, 8 μg/mL TPB15, ultrafiltration, 37 °C 3 h) of the same molecule?
Its fraction unbound at 3 h, 8 μg/mL is 0.188.

What about the fraction unbound at 3 h, 16 μg/mL ([1]; cynomolgus monkey, plasma, 16 μg/mL TPB15, ultrafiltration, 37 °C 3 h) of the same molecule?
Its fraction unbound at 3 h, 16 μg/mL is 0.178.

What about the fraction unbound at 3 h ([1]; monkey plasma, 4 to 16 μg/mL, read-out: average plasma protein binding rates, range over concentrations) of the same molecule?
The fraction unbound at 3 h was 0.178 to 0.188.

And the fraction unbound at 3 h, 4 μg/mL ([2]; dog, plasma, 4 μg/mL TPB15, ultrafiltration, 37 °C 3 h)?
Its fraction unbound at 3 h, 4 μg/mL is 0.185.

And the fraction unbound at 3 h, 8 μg/mL ([2]; dog, plasma, 8 μg/mL TPB15, ultrafiltration, 37 °C 3 h)?
Its fraction unbound at 3 h, 8 μg/mL is 0.19.

And the fraction unbound at 3 h, 16 μg/mL ([2]; dog, plasma, 16 μg/mL TPB15, ultrafiltration, 37 °C 3 h)?
Its fraction unbound at 3 h, 16 μg/mL is 0.177.

What about the fraction unbound at 3 h ([2]; dog plasma, 4 to 16 μg/mL, read-out: average plasma protein binding rates, range over concentrations) of the same molecule?
Its fraction unbound at 3 h is 0.177 to 0.19.

And the “Remaining proportion of substrate TPB15 (%) SD rat” value (“Remaining proportion … (%) SD rat” for short) (Stability in rat plasma; incubation 0 min)?
Its value is 100.0 ± 0.6%.

What about the “Remaining proportion … (%) SD rat” value (Stability in rat plasma; incubation 30 min) of the same molecule?
Its value is 99.7 ± 1.5%.

And the “Remaining proportion … (%) SD rat” value (Stability in rat plasma; incubation 60 min)?
The value was 97.6 ± 0.6%.

And the “Remaining proportion … (%) SD rat” value (Stability in rat plasma; incubation 90 min)?
The value was 99.1 ± 0.3%.

What about the “Remaining proportion … (%) SD rat” value (Stability in rat plasma; incubation 120 min) of the same molecule?
Its value is 98.0 ± 0.6%.

And the “Remaining proportion of substrate TPB15 (%) Cynomolgus monkey” value ([3]; incubation 0 min)?
Its value is 100.0 ± 1.7%.

And the “Remaining proportion of substrate TPB15 (%) Cynomolgus monkey” value ([3]; incubation 30 min)?
Its value is 98.2 ± 0.6%.

And the “Remaining proportion of substrate TPB15 (%) Cynomolgus monkey” value ([3]; incubation 60 min)?
The value was 96.3 ± 1.2%.

What about the “Remaining proportion of substrate TPB15 (%) Cynomolgus monkey” value ([3]; incubation 90 min) of the same molecule?
The value was 99.3 ± 0.9%.

What about the “Remaining proportion of substrate TPB15 (%) Cynomolgus monkey” value ([3]; incubation 120 min) of the same molecule?
The value was 98.3 ± 1.5%.

And the “remaining proportion of TPB15 in liver microsomes” value (“remaining proportion of TPB15” below) ([4]; KM mice microsomes, 90 min, 5 μM TPB15, 0.5 mg/mL, NADPH 1 mM)?
The value was 80.0 ± 5.93%.

What about the microsomal CLint at 5 μM ([4]; KM, mouse, liver microsomes, MouLM, 5 μM TPB15, 0.5 mg/mL microsomes, read-out: CLint (mL/min/mg), in vitro intrinsic clearance rate) of the same molecule?
The microsomal CLint at 5 μM was 0.0273 mL/min/mg.

And the “remaining proportion of TPB15” value ([5]; beagle dog microsomes, 90 min, 5 μM TPB15, 0.5 mg/mL, NADPH 1 mM)?
The value was 90.3 ± 3.54%.

What about the microsomal CLint at 5 μM ([5]; beagle, dog, liver microsomes, DLM, 5 μM TPB15, 0.5 mg/mL microsomes, read-out: CLint (mL/min/mg), in vitro intrinsic clearance rate) of the same molecule?
Its microsomal CLint at 5 μM is 0.0132 mL/min/mg.

And the half-life at 5 μM ([5]; beagle, dog, liver microsomes, DLM, 5 μM TPB15, 0.5 mg/mL microsomes, read-out: T1/2 (min), in vitro elimination half-life)?
The half-life at 5 μM was 630 min.

And the “remaining proportion of TPB15” value ([6]; human microsomes, 90 min, 5 μM TPB15, 0.5 mg/mL, NADPH 1 mM)?
Its value is 55.0 ± 2.81%.

And the microsomal CLint at 5 μM ([6]; human, liver microsomes, HLM, 5 μM TPB15, 0.5 mg/mL microsomes, read-out: CLint (mL/min/mg), in vitro intrinsic clearance rate)?
Its microsomal CLint at 5 μM is 0.0805 mL/min/mg.

What about the half-life at 5 μM ([6]; human, liver microsomes, HLM, 5 μM TPB15, 0.5 mg/mL microsomes, read-out: T1/2 (min), in vitro elimination half-life) of the same molecule?
Its half-life at 5 μM is 103 min.

What about the “lethal dose for 50% of the population (LD50)” value (mice) of the same molecule?
Its value is 3875.35 mg/kg.

What about the “inhibition of proliferation of TNBC cell line” value (MDA-MB-468) of the same molecule?
The value was “significantly inhibits the proliferation”.

And the “inhibition of proliferation of TNBC cell line” value (MDA-MB-231)?
The value was “significantly inhibits the proliferation”.

And the tumor inhibitory effect (MDA-MB-468 xenograft)?
The tumor inhibitory effect was “robust tumor inhibitory effect, surpassing that of the positive control drug Vismodegib”.
